Bounds are passed on as bounds.

The target in one test is Dual specificity protein phosphatase 3 (Homo sapiens, UniProt P51452). Kind of test: Inhibition of human His-tagged VHR phosphatase activity assessed as fluorescence by BMG plate reader in the presence of 0.005% Tween-20.
Sequence of Dual specificity protein phosphatase 3 (P51452 whole entry): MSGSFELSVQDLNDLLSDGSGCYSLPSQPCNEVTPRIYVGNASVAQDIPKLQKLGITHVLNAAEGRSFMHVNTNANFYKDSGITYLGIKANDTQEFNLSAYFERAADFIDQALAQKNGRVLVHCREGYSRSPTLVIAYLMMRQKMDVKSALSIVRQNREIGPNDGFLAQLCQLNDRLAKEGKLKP
On to `O=S(=O)(Cc1ccco1)Cc1nc(-c2ccc(-c3ccccc3)cc2)cs1`, for which the IC50 (as a rule, the concentration at which inhibition is half-maximal) is 26 µM.
The same measure, in the same setting: for `N#Cc1ccc(-c2csc(-c3ccc(-c4csnn4)cc3)n2)cc1` the value was > 100 µM; for `COc1ccc(-c2nc(C(=O)Nc3ccc[nH]c3=O)cs2)cc1`, > 100 µM.
Take `O=C(/C=C/c1ccc2c(c1)OCO2)Nc1nc(-c2ccc(F)cc2F)cs1`: the IC50 was 65.7 µM.
On the same count and under the same terms, for `O=c1[nH]c2cc(S(=O)(=O)Nc3cccc(-c4csc(-c5ccccc5)n4)c3)ccc2o1` the value was 34.8 µM; for `O=C(CCC(=O)NC1CCCC1)Nc1nc(-c2cc3ccccc3oc2=O)cs1`, 24.9 µM; for `O=C(Nc1cccc(-c2csc(-c3ccccc3)n2)c1)c1cccc(=O)[nH]1`, > 100 µM.

In the next test the target is T1, M-phase inducer phosphatase 1 (Homo sapiens, UniProt P30304).
T1 sequence (P30304 whole entry): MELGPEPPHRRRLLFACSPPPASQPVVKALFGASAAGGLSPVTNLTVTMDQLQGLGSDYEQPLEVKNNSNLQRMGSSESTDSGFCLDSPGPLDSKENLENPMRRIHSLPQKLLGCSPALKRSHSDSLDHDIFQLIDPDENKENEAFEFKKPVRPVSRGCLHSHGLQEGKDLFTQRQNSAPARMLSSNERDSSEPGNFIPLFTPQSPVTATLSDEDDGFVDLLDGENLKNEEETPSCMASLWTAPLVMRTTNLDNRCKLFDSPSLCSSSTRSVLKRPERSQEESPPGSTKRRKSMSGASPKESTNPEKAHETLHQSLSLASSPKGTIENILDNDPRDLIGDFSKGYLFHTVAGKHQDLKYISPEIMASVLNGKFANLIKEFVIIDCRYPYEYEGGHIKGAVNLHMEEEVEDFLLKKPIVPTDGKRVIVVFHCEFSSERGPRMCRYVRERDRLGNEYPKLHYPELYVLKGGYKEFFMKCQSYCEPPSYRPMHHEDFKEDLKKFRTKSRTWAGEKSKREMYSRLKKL
The test is described as follows: Inhibition of Cdc25A (unknown origin) phosphatase activity assessed as fluorescence by BMG plate reader in the presence of 0.005% Tween-20.
Turning to `O=C1C(=O)c2c(C(=O)c3ccccc3)coc2-c2ccccc21`, the 50% inhibitory concentration (IC50) was determined as 5 µM.
The same measure, in the same setting: for `O=S(=O)(Cc1ccco1)Cc1nc(-c2ccc(-c3ccccc3)cc2)cs1` the value was 2.7 µM.
`N#Cc1ccc(-c2csc(-c3ccc(-c4csnn4)cc3)n2)cc1`: the IC50 worked out at 12.2 µM.
Take `COc1ccc(-c2nc(C(=O)Nc3ccc[nH]c3=O)cs2)cc1`: the IC50 came to 17.5 µM.
The same measure, in the same setting: to `O=C(/C=C/c1ccc2c(c1)OCO2)Nc1nc(-c2ccc(F)cc2F)cs1` belongs 7.5 µM; to `O=c1[nH]c2cc(S(=O)(=O)Nc3cccc(-c4csc(-c5ccccc5)n4)c3)ccc2o1`, 2.2 µM; to `O=C(CCC(=O)NC1CCCC1)Nc1nc(-c2cc3ccccc3oc2=O)cs1`, 12.3 µM.
Same read-out and setting: for `O=C(Nc1cccc(-c2csc(-c3ccccc3)n2)c1)c1cccc(=O)[nH]1` the value was 6.9 µM.

In the next test the target is T2, M-phase inducer phosphatase 2 (Homo sapiens, UniProt P30305).
T2 sequence (P30305 whole entry): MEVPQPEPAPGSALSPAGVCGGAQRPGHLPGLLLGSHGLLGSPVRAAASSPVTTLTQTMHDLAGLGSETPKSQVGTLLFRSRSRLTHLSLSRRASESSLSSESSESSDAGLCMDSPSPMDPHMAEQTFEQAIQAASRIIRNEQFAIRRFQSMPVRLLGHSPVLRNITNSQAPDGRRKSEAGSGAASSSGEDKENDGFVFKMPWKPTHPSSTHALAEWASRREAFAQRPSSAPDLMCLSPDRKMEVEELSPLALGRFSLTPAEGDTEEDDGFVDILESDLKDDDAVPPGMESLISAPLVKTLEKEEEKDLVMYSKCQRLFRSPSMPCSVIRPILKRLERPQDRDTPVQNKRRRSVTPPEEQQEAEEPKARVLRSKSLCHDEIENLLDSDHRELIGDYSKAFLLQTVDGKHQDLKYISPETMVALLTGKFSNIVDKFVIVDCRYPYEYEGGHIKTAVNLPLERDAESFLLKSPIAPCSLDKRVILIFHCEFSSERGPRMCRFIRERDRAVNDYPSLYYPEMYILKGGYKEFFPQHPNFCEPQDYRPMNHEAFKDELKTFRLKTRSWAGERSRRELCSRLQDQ
The test is described as follows: Inhibition of Cdc25B (unknown origin) phosphatase activity assessed as fluorescence by BMG plate reader in the presence of 0.005% Tween-20.
With `O=C1C(=O)c2c(C(=O)c3ccccc3)coc2-c2ccccc21`, the IC50 came out at 5 µM.
Take `O=S(=O)(Cc1ccco1)Cc1nc(-c2ccc(-c3ccccc3)cc2)cs1`: the IC50 was determined as 1.7 µM.
The same measure, in the same setting: for `N#Cc1ccc(-c2csc(-c3ccc(-c4csnn4)cc3)n2)cc1` the value was 3.1 µM.
The same measure, in the same setting: to `COc1ccc(-c2nc(C(=O)Nc3ccc[nH]c3=O)cs2)cc1` belongs 6.8 µM; to `O=C(/C=C/c1ccc2c(c1)OCO2)Nc1nc(-c2ccc(F)cc2F)cs1`, 2.69 µM; to `O=c1[nH]c2cc(S(=O)(=O)Nc3cccc(-c4csc(-c5ccccc5)n4)c3)ccc2o1`, 3.5 µM.
As for `O=C(CCC(=O)NC1CCCC1)Nc1nc(-c2cc3ccccc3oc2=O)cs1`, the IC50 amounted to 5.9 µM.
On the same count and under the same terms, to `CCOC(=O)C1=C(C)N=c2s/c(=C\c3ccc(O)cc3)c(=O)n2C1c1ccc2c(c1)OCO2` (configuration not stated) belongs 13 µM; to `CCOc1ccc(-c2nn(-c3ccccc3)cc2/C=C2\SC(=O)N(C)C2=O)cc1Br`, 2 µM; to `O=C(Nc1cccc(-c2csc(-c3ccccc3)n2)c1)c1cccc(=O)[nH]1`, 4.2 µM.

The target of another test is T3, M-phase inducer phosphatase 3 (Homo sapiens, UniProt P30307).
T3 sequence (P30307 whole entry): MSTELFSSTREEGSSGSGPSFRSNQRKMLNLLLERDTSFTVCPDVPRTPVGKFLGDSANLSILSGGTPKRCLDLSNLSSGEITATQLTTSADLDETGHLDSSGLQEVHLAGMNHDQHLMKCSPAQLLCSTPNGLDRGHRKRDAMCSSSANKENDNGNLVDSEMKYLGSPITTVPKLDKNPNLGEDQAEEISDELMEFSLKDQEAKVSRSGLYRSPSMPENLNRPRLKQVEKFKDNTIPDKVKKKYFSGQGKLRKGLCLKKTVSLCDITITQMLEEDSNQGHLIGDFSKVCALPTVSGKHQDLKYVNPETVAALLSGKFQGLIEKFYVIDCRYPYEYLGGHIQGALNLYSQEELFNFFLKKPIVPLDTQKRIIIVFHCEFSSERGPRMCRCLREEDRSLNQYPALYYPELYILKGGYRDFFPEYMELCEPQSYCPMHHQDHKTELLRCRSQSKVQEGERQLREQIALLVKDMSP
Kind of test: Inhibition of Cdc25C (unknown origin) phosphatase activity assessed as fluorescence by BMG plate reader in the presence of 0.005% Tween-20.
For `O=C1C(=O)c2c(C(=O)c3ccccc3)coc2-c2ccccc21`, the IC50 was 5 µM.
Take `O=S(=O)(Cc1ccco1)Cc1nc(-c2ccc(-c3ccccc3)cc2)cs1`: the IC50 is 9.7 µM.
On the same count and under the same terms, to `N#Cc1ccc(-c2csc(-c3ccc(-c4csnn4)cc3)n2)cc1` belongs 8.8 µM; to `O=C(/C=C/c1ccc2c(c1)OCO2)Nc1nc(-c2ccc(F)cc2F)cs1`, 11 µM.
On the same count and under the same terms, to `O=c1[nH]c2cc(S(=O)(=O)Nc3cccc(-c4csc(-c5ccccc5)n4)c3)ccc2o1` belongs 44.4 µM; to `O=C(CCC(=O)NC1CCCC1)Nc1nc(-c2cc3ccccc3oc2=O)cs1`, 9.4 µM; to `O=C(Nc1cccc(-c2csc(-c3ccccc3)n2)c1)c1cccc(=O)[nH]1`, 8.6 µM.

These data come from ChEMBL document CHEMBL3217647, “Prospective use of molecular field points in ligand-based virtual screening: efficient identification of new reversible Cdc25 inhibitors” (Medchemcomm, 2013).
